Reference: US5648359A, “Tumor necrosis factor production inhibitors” (Sumitomo Pharmaceuticals Company, Limited, priority 1993, dated 1997)
Structures can show the parent of a compound that is named as a salt.

Test system: TNF production or secretion in mouse peritoneal macrophages
Assay: Inhibitory effect on TNF production or secretion in mouse peritoneal macrophages (30 μM)
Type: cell-based, mouse (BALB/c)
Conditions: 30 μM compound, LPS 10 μg/ml, 18 hours, TNF by L929 bioassay; for inhibition at 30 µM: Mus musculus
Method: Inhibitory effect on TNF production or secretion in mouse peritoneal macrophages (In case drug concentration is 30 μM)
BALB/c mice (5 weeks old, female, Charles River Japan) were intraperitoneally injected with 1 ml of 3% thioglycollate broth. After 4 days, the mice were sacrificed. Peritoneal exudated cells (PECs) were collected from the peritoneal cavity by washing with minimum essential medium (hereinafter abbreviated as MEM, manufactured by Handai Biseibutubyo Kenkyukai, Osaka, Japan) containing 5 U/ml heparin and 1% fetal bovine serum (FBS, manufactured by GIBCO Laboratories Inc.). PECs were washed three times with MEM, suspended with MEM containing 10% FBS. After the viable cells were counted by exclusion of trypan blue dye, the suspension was adjusted at the final concentration of 2×10^6 cells/ml with MEM containing 10% FBS and seeded into a 96-well microplate (Costar, Cambridge, Mass., USA) at 2×10^5 cells/100 μl/well. The PECs were incubated for an hour at 37° C. in a humidified 5% CO2 incubator, and were washed twice with MEM warmed at 37° C. to remove non-adherent cells. Residual adherent cells were used as peritoneal macrophages. After the washing above, 50 μl each/well of MEM containing 10% FBS was added to each well and provided for use in the following experiment.
The powdery compound of the present invention was dissolved in dimethylsulfoxide in a concentration of 30 mM. The solution was then diluted with MEM containing 10% FBS in the final concentration of 30 μM. In the peritoneal macrophages obtained above, 50 μl each of the dilution was added to each well to make the total volume 100 μl. Thereafter 100 μl each of lipopolysaccharide (hereinafter abbreviated as LPS, E. coli 0111B4, manufactured by DIFCO, USA) was added to each well in the final concentration of 10 μg/ml. After the cells were incubated at 37° C. for 18 hours in a humidified 5% CO2 incubator, 25 μl of the supernatant in each well was collected.
The TNF activity in the supernatant collected was determined by bioassay using TNF-sensitive mouse fibroblast cell line L929 cells. That is, 100 μl each of MEM containing 10% FBS was added to each well of a 96-well microplate; using the resulting mixture, 25 μl of the collected supernatant was diluted to 5-fold dilution to final concentrations (concentrations after the following addition of L929 cell suspension) of 10%, 2%, 0.4% and 0.08%.
L929 cells were then suspended (4×10^5 cells/ml) in MEM containing 10% FBS and 1 μg/ml actinomycin D (Sigma Co.) and 100 μl each of the suspension was added to each well of the above microplate at 4×10^4 cells/well and cultured at 37° C. in a humidified 50% CO2. The viable cells were counted by partial modification of the MTT method reported in Monosann et al., T., J. Immunol. Method, 65, 55-63, 1983. The modified MTT method comprises the following steps. One mg/ml of 3-(4,5-dimethylthiazol-2-yl)-2,5-diphenyltetrazolium bromide (hereinafter abbreviated as MTT, manufactured by Sigma Co.) was dissolved in MEM, and 50 μl each of the solution was added to each well of the microplate above. After incubating the microplate for further 6 hours, the supernatant was discarded and 100 μl of 0.004N HCl-isopropyl alcohol and then 10 μl of 0.01% sodium laurylsulfate aqueous solution was added to each well. After shaking the 96-well microplate for a few minutes, the absorbance in each well was measured with a microplate reader (Corona Co.) at an absorption wavelength of 550 nm. The absorbance correlated to the count of the viable L929 cells and represented the TNF activity in the supernatant. The TNF activity was determined in terms of unit (U)/ml from the calibration curve of absorbance for the TNF activity obtained using mouse recombinant TNF α (TNF-M, manufactured by Genzyme Co.) as a standard. The activity of inhibiting TNF production of each compound, was determined by the following equation.
Inhibition of TNF production or secretion (%)=(1-TNF activity in the […]

Compound | inhibition at 30 µM [%] | Inhibition of TNF Production or Secretion [%]
NCCC(=O)N1C2Cc3cc4c(cc3C1Cc1cc3c(cc12)OCO3)OCO4 [Example 53, 15-(3-aminopropionyl)-5,6,12,13-tetrahydrocycloocta[1,2-f:5,6-f']bis[1,3]benzodioxol-5,12-imine] | -1 | 
CCOC(=O)CCN1C2Cc3cc4c(cc3C1Cc1cc3c(cc12)OCO3)OCO4 [Example 38] | 6 | 
O=C(O)C(=O)N1C2Cc3cc4c(cc3C1Cc1cc3c(cc12)OCO3)OCO4 [Example 46, 5,6,12,13-tetrahydro-15-oxalocycloocta[1,2-f:5,6-f']bis[1,3]benzodioxol-5,12-imine] | 6 | 
NCCN1C2Cc3cc4c(cc3C1Cc1cc3c(cc12)OCO3)OCO4 [Example 50, 15-(2-aminoethyl)-5,6,12,13-tetrahydrocycloocta[1,2-f:5,6-f']bis[1,3]benzodioxol-5,12-imine] | 64 | 
N#CCCN1C2Cc3cc4c(cc3C1Cc1cc3c(cc12)OCO3)OCO4 [Example 39, 15-(2-cyanoethyl)-5,6,12,13-tetrahydrocycloocta[1,2-f:5,6-f']bis[1,3]benzodioxol-5,12-imine] | -48 | 
CCOC(=O)CC(=O)N1C2Cc3cc4c(cc3C1Cc1cc3c(cc12)OCO3)OCO4 [Example 22, 15-(ethoxycarbonylacetyl)-5,6,12,13-tetrahydrocycloocta[1,2-f:5,6-g']bis[1,3]benzodioxol-5,12-imine] | 77 | 
mixture of 16-acetyl-6,7,13,14-tetrahydro-2-hydroxymethyl[1,3]benzodioxolo[5,6-f]cycloocta[1,2-g]-1,4-benzodioxan-6,13-imine and 16-acetyl-6,7,13,14-tetrahydro-3-hydroxymethyl[1,3]benzodioxolo[5,6-f]cycloocta[1,2-g]-1,4-benzodioxan-6,13-imine [Example 8] |  | 86
O=C(c1ccccc1)N1C2Cc3cc4c(cc3C1Cc1cc3c(cc12)OCO3)OCO4 [Example 23] | 39 | 
C=CCCCN1C2Cc3cc4c(cc3C1Cc1cc3c(cc12)OCO3)OCO4 [Example 33] | -5 | 
CCOC(=O)C(=O)N1C2Cc3cc4c(cc3C1Cc1cc3c(cc12)OCO3)OCO4 [Example 21, 15-ethoxalyl-5,6,12,13-tetrahydrocycloocta[1,2-f:5,6-f']bis[1,3]benzodioxol-5,12-imine] | 69 | 
CC(C)CN1C2Cc3cc4c(cc3C1Cc1cc3c(cc12)OCO3)OCO4 [Example 31] | 36 | 
CNC(=O)N1C2Cc3cc4c(cc3C1Cc1cc3c(cc12)OCO3)OCO4 [Example 44, 5,6,12,13-tetrahydro-15-(N-methylcarbamoyl)cycloocta[1,2-f:5,6-f']bis[1,3]benzodioxol-5,12-imine] | 90 | 
CCN1C2Cc3cc4c(cc3C1Cc1cc3c(cc12)OCO3)OCO4 [Example 2, 15-ethyl-5,6,12,13-tetrahydrocycloocta[1,2-f:5,6-f']bis[1,3]benzodioxol-5,12-imine hydrochloride] | 72 | 
O=C(O)CC(=O)N1C2Cc3cc4c(cc3C1Cc1cc3c(cc12)OCO3)OCO4 [Example 45, 15-(carboxyacetyl)-5,6,12,13-tetrahydrocycloocta[1,2-f:5,6-f']bis[1,3]benzodioxol-5,12-imine] | 15 | 
COC(=O)CCN1C2Cc3cc4c(cc3C1Cc1cc3c(cc12)OCO3)OCO4 [Example 36] | -24 | 
O=C(CO)N1C2Cc3cc4c(cc3C1Cc1cc3c(cc12)OCO3)OCO4 [Example 48, 15-glycoloyl-5,6,12,13-tetrahydrocycloocta[1,2-f:5,6-f']bis-[1,3]benzodioxol-5,12-imine] | 85 | 
OCCN1C2Cc3cc4c(cc3C1Cc1cc3c(cc12)OCO3)OCO4 [Example 35] | 65 | 

Compound | inhibition at 30 µM [%] | Inhibition of TNF Production or Secretion [%]
CCOC(=O)N1C2Cc3cc4c(cc3C1Cc1cc3c(cc12)OCO3)OCO4 [Example 24] | 68 | 
COCC(=O)N1C2Cc3cc4c(cc3C1Cc1cc3c(cc12)OCO3)OCO4 [Example 20] | 92 | 
CCC(=O)N1C2Cc3cc4c(cc3C1Cc1cc3c(cc12)OCO3)OCO4 [Example 17, 5,6,12,13-tetrahydro-15-propionylcycloocta-[1,2-f:5,6-f']bis[1,3]benzodioxol-5,12-imine] | 94 | 
O=C(CCO)N1C2Cc3cc4c(cc3C1Cc1cc3c(cc12)OCO3)OCO4 [Example 47, 5,6,12,13-tetrahydro-15-(3-hydroxypropionyl)cycloocta[1,2-f:5,6-f']bis[1,3]benzodioxol-5,12-imine] | 83 | 
Fc1ccc(CCCN2C3Cc4cc5c(cc4C2Cc2cc4c(cc23)OCO4)OCO5)cc1 [Example 4, 15-[3-(4-fluorophenyl)propyl]-5,6,12,13-tetrahydrocycloocta[1,2-f:5,6-f']bis[1,3]benzodioxol-5,12-imine hydrochloride] | 18 | 
CC(=O)N1C2Cc3cc4c(cc3C1Cc1cc3c(cc12)OCO3)OCO4 [Example 1, 15-acetyl-5,6,12,13-tetrahydrocycloocta[1,2-f:5,6-f']bis[1,3]benzodioxol-5,12-imine] | 95 | 
CN1C2Cc3cc4c(cc3C1Cc1cc3c(cc12)OCO3)OCO4 [Example 27] | 86 | 
NCCCC(=O)N1C2Cc3cc4c(cc3C1Cc1cc3c(cc12)OCO3)OCO4 [Example 54, 15-(4-aminobutyryl)-5,6,12,13-tetrahydrocycloocta[1,2-f:5,6-f']bis[1,3]benzodioxol-5,12-imine] | 35 | 
c1c2c(cc3c1OCO3)C1Cc3cc4c(cc3C(C2)N1)OCO4 [Example 13, 5,6,12,13-tetrahydrocycloocta-[1,2-f:5,6-f']bis[1,3]benzodioxol-5,12-imine] | 78 | 
c1coc(CN2C3Cc4cc5c(cc4C2Cc2cc4c(cc23)OCO4)OCO5)c1 [Example 3, 15-furfuryl-5,6,12,13-tetrahydrocycloocta[1,2-f:5,6-f']bis[1,3]benzodioxol-5,12-imine hydrochloride] | -99 | 
NCC(=O)N1C2Cc3cc4c(cc3C1Cc1cc3c(cc12)OCO3)OCO4 [Example 52, 15-glycyl-5,6,12,13-tetrahydrocycloocta[1,2-f:5,6-f']bis[1,3]benzodioxol-5,12-imine] | 20 | 
CC(=O)N1C2Cc3cc4c(cc3C1Cc1cc3c(cc12)OCCO3)OCCO4 [Example 5, 17-acetyl-6,7,14,15-tetrahydrocycloocta[1,2-g:5,6-g']bis[1,4]benzodioxan-6,14-imine] | 64 | 
c1c2c(cc3c1OCO3)C1Cc3cc4c(cc3C(C2)N1CCN1CCCCC1)OCO4 [Example 34] | 56 | 
isomeric mixture of 16-acetyl-2-aminomethyl-6,7,13,14-tetrahydro-[1,3]benzodioxolo[5,6-f]cycloocta[1,2-g]-1,4-benzodioxan-6,13-imine and 16-acetyl-3-aminomethyl-6,7,13,14-tetrahydro-[1,3]benzodioxolo[5,6-f]cycloocta[1,2-g]-1,4-benzodioxan-6,13-imine [Example 9] |  | 69
O=CN1C2Cc3cc4c(cc3C1Cc1cc3c(cc12)OCO3)OCO4 [Example 40, 15-formyl-5,6,12,13-tetrahydrocycloocta[1,2-f:5,6-f']bis[1,3]benzodioxol-5,12-imine] | 84 | 
CCOC(=O)CN1C2Cc3cc4c(cc3C1Cc1cc3c(cc12)OCO3)OCO4 [Example 37] | 19 | 
